What was measured:
[1] = test system: maximal electroshock seizures in mice; assay: Anti-electroshock convulsion activity (maximal electroshock seizures, method of Goodman et al.); assay type: in vivo; conditions: 2 hours after oral administration, n = 8, 25 mA, 0.25 sec.
Protocol: The effects of the representative compounds of the present invention on maximal electroshock seizures in mice were determined by the method of Goodman et al. [Goodman L. S., Singh Grewal M., Brown W. C. and Swinyard E. A., J. Pharmacol, Exp. Ther., 108, 168-176 (1953)]. At 2 hours after oral administration of test compounds, current (25 mA, 0.25 sec.) was delivered to animals with an electroshock device (made by Unique Medical).

[2] = test system: metrazol-induced convulsive death; assay: Anti-metrazol activity (metrazol-induced convulsive death); assay type: in vivo; conditions: oral doses of 20 to 80 mg/kg, male STD-ddY mice
Description: (a) Anti-metrazol activity of the compounds of the present invention was examined in male STD-ddY mice.

[3] = test system: mortality induced by potassium cyanide; assay: Anti-hypoxic activity (mortality induced by potassium cyanide); assay type: in vivo; conditions: 10 to 20 mg/kg, p.o., male STD-ddY mice
[4] = Acute toxicity (oral LD50); conditions: mouse, in vivo, mice
Description: (c) Acute toxicity of the compounds of the present invention was relatively low.

Structure (SMILES)	Inhibition (%) of tonic extension ([1]; 80 mg/kg p.o.) [%]	Inhibition (%) of tonic extension ([1]; 320 mg/kg p.o.) [%]	Inhibition (%) of tonic extension ([1]; 10 mg/kg p.o.) [%]	Inhibition (%) of tonic extension ([1]; 20 mg/kg p.o.) [%]	Inhibition (%) of tonic extension ([1]; 40 mg/kg p.o.) [%]	antagonism against metrazol-induced convulsive death [2]	anti-hypoxic activity (antagonism against mortality induced by potassium cyanide) [3]	LD50 [4] [mg/kg]
O=C(O)C1=C(C(=O)Nc2cc(C(F)(F)F)cc(C(F)(F)F)c2)CCCC1 [Compound D, 2-[(3,5-bistrifluoromethyl-phenyl)-aminocarbonyl]-1-cyclohexenecarboxylic acid]	0	100						
O=C(Nc1cc(C(F)(F)F)cc(C(F)(F)F)c1)[C@@H]1[C@@H]2CC[C@@H](C2)[C@@H]1C(=O)O (relative stereo) [Compound E, cis-endo-3-[(3,5-bistrifluoromethyl-phenyl)-aminocarbonyl]-bicyclo-(2,2,1)-heptane-2-carboxylic acid]	0	100						
O=C(O)[C@@H]1CCCC[C@H]1C(=O)Nc1cc(C(F)(F)F)cc(C(F)(F)F)c1 (relative stereo) [Compound B, trans-2-[(3,5-bistrifluoromethyl)-phenyl-aminocarbonyl]-cyclohexane carboxylic acid]	0	100						
O=C(Nc1cc(C(F)(F)F)cc(C(F)(F)F)c1)[C@H]1CCCC[C@H]1C(=O)O (relative stereo) [Compound A, cis-2-[(3,5-bistrifluoromethyl)-phenyl-aminocarbonyl]-cyclohexane carboxylic acid]	100	100	25	50	100	dose-dependent antagonism	potent anti-hypoxic activity	1000 to 2000
O=C(Nc1cc(C(F)(F)F)cc(C(F)(F)F)c1)[C@H]1CC=CC[C@H]1C(=O)O (relative stereo) [Compound C, cis-6-[(3,5-bistrifluoromethyl-phenyl)-aminocarbonyl]-3-cyclohexene carboxylic acid]	100	100	12.5	100	100	dose-dependent antagonism	potent anti-hypoxic activity	1000 to 2000
O=C1C2CC=CCC2C(=O)N1c1cc(C(F)(F)F)cc(C(F)(F)F)c1 (stereo not drawn) [Compound H, N-(3,5-bistrifluoromethylphenyl)-4-cyclohexene-1,2-dicarboximide]	50	87.5						
CC1CC[C@H](C(=O)O)[C@H](C(=O)Nc2cc(C(F)(F)F)cc(C(F)(F)F)c2)C1 (relative stereo) [Compound F, cis-2-[(3,5-bistrifluoromethyl-phenyl)-aminocarbonyl]-4(5)-methyl-cyclohexane carboxylic acid]	100	100			50			
O=C1C2CCCCC2C(=O)N1c1cc(C(F)(F)F)cc(C(F)(F)F)c1 (stereo not drawn) [Compound G, N-(3,5-bistrifluoromethylphenyl)-cyclohexane-1,2-dicarboximide]	100	100			25			

Source: patent US4661630A, “Carboxylic acid amides and their derivatives” (Eisai Co., Ltd., priority 1982, dated 1987)
